From PMC6682008 (ACS Omega, 2019) come the findings set out here.

This experiment concerns the target hSPR (human sepiapterin reductase) (Homo sapiens, UniProt P35270). Briefly: colorimetric sepiapterin reduction, absorbance decrease at […] nm. It is filed as biochemical.

hSPR (human sepiapterin reductase), sequence (P35270 whole entry): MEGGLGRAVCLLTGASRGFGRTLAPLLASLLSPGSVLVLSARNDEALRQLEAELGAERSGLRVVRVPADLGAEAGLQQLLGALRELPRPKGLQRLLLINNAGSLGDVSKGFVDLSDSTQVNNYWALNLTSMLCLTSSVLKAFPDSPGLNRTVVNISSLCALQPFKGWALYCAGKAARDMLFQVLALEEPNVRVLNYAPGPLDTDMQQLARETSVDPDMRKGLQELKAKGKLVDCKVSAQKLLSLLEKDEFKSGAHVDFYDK

With `COc1ccc(/C=C/C(=O)Nc2ccccc2C(=O)O)cc1OC` [tranilast, N-3′,4′-dimethoxycinnamoyl-anthranilic acid], inhibition was half-maximal at 5.89 µM (IC50). For `C[C@H](Cc1ccc(O)c(O)c1)[C@@H](C)Cc1ccc(O)c(O)c1` [nordihydroguaiaretic acid] the value was 8.26 µM. For `CC(=O)NCCc1c[nH]c2ccc(O)cc12` [N-acetylserotonin, reference compound] the value was 11.6 µM.

For orientation: IC50 means the midpoint of a concentration-inhibition curve.
